From patent US7001983B1, “Antipathogenic synthetic peptides and compositions comprising them” (priority 1997, dated 2006)
Square brackets hold non-standard residues; d marks the D form. Peptide text beside a SMILES is read from it.

What was measured:
Format in all cases: cell-based
Escherichia coli D21 = conditions: 100% inhibition of growth after 18–20 h
[1] = test system: human red blood cells (hRBC); test: Hemolysis of human red blood cells; conditions: hRBC, 30 min at 37° C.
Procedure: (ix) Hemolysis of human red blood cells. The peptides were tested for their hemolytic activities against human red blood cells (hRBC). Fresh hRBC with EDTA were rinsed 3 times with PBS (35 mM phosphate buffer/0.15 M NaCl, pH 7.3) by centrifugation for 10 min at 800 g and resuspended in PBS. Peptides dissolved in PBS were then added to 50 μL of a solution of the stock hRBC in PBS to reach a final volume of 100 μL (final erythrocyte concentration, 5% v/v). The resulting suspension was incubated under agitation for 30 min at 37° C. The samples were then centrifuged at 800 g for 10 min. Release of hemoglobin was monitored by measuring the absorbance of the supernatant at 540 nm. Controls for zero hemolysis (blank) and 100% hemolysis consisted of hRBC suspended in PBS and Triton 1%, respectively.

Bacillus megaterium Bm11 = conditions: 100% inhibition of growth after 18–20 h

CC[C@H](C)[C@H](NC(=O)[C@H](CCCCN)NC(=O)[C@@H]1CCCN1C(=O)[C@@H](NC(=O)[C@@H](CC(C)C)NC(=O)[C@H](C)NC(=O)[C@H](Cc1ccccc1)NC(=O)[C@H](Cc1ccccc1)NC(=O)CN)[C@@H](C)CC)C(=O)N[C@H](C(=O)N[C@@H](CO)C(=O)N[C@@H](CO)C(=O)N1CCC[C@H]1C(=O)N[C@@H](CC(C)C)C(=O)N[C@@H](Cc1ccccc1)C(=O)N[C@@H](CCCCN)C(=O)N[C@H](C(=O)N[C@@H](CC(C)C)C(=O)N[C@H](CC(C)C)C(=O)N[C@@H](CO)C(=O)N[C@@H](C)C(=O)N[C@H](C(=O)NCC(=O)N[C@@H](CO)C(=O)N[C@@H](C)C(=O)N[C@@H](CC(C)C)C(=O)N[C@@H](CO)C(=O)N[C@@H](CO)C(=O)N[C@@H](CO)C(=O)NCC(=O)NCC(=O)N[C@@H](CCC(N)=O)C(=O)N[C@@H](CCC(=O)NCCN)C(=O)NCCN)C(C)C)[C@@H](C)O)[C@@H](C)CC [Peptide 10, [D]L^5L^19-TApar]
Minimal Inhibitory Concentration E. coli (D21) (Escherichia coli D21): 3 µM
% hemolysis at 50 μM peptide [1]: 56%
Minimal Inhibitory Concentration B. megaterium (Bm11) (Bacillus megaterium Bm11): 1.3 µM

CC[C@H](C)[C@@H]1NC(=O)[C@H](CCCCN)NC(=O)[C@H]2CCCN2C(=O)[C@H]([C@@H](C)CC)NC(=O)[C@H](CC(C)C)NC(=O)[C@H](C)NC(=O)[C@H](Cc2ccccc2)NC(=O)[C@H](Cc2ccccc2)NC(=O)CNC(=O)[C@H](CCCCN)NC(=O)[C@@H](N)CSSC[C@@H](C(=O)O)NC(=O)[C@H](C(C)C)NC(=O)[C@H](C)NC(=O)[C@H](CO)NC(=O)[C@@H](CC(C)C)NC(=O)[C@@H](CC(C)C)NC(=O)[C@H]([C@@H](C)O)NC(=O)[C@H](CCCCN)NC(=O)[C@H](Cc2ccccc2)NC(=O)[C@H](CC(C)C)NC(=O)[C@@H]2CCCN2C(=O)[C@H](CO)NC(=O)[C@H](CO)NC(=O)[C@H]([C@@H](C)CC)NC1=O [Peptide 86, Cyclic K^1[D]P^7L^18L^19[1-22]-par]
Minimal Inhibitory Concentration E. coli (D21) (Escherichia coli D21): 30 µM
% hemolysis at 100 μM [1]: 0%
Minimal Inhibitory Concentration B. megaterium (Bm11) (Bacillus megaterium Bm11): 10 µM

CC[C@H](C)[C@@H]1NC(=O)[C@H](CCCCN)NC(=O)[C@H]2CCCN2C(=O)[C@H]([C@@H](C)CC)NC(=O)[C@H](CC(C)C)NC(=O)[C@H](C)NC(=O)[C@H](Cc2ccccc2)NC(=O)[C@H](Cc2ccccc2)NC(=O)CNC(=O)[C@H](CCCCN)NC(=O)[C@H](CCCCN)NC(=O)[C@H](CCCCN)NC(=O)[C@@H](N)CSSC[C@@H](C(=O)O)NC(=O)[C@H](C(C)C)NC(=O)[C@H](C)NC(=O)[C@H](CO)NC(=O)[C@@H](CC(C)C)NC(=O)[C@@H](CC(C)C)NC(=O)[C@H]([C@@H](C)O)NC(=O)[C@H](CCCCN)NC(=O)[C@H](Cc2ccccc2)NC(=O)[C@H](CC(C)C)NC(=O)[C@@H]2CCCN2C(=O)[C@H](CO)NC(=O)[C@H](CO)NC(=O)[C@H]([C@@H](C)CC)NC1=O [Peptide 88, Cyclic K^1K^2K^3[D]P^7L^18L^19[1-22]-par]
Minimal Inhibitory Concentration E. coli (D21) (Escherichia coli D21): 7.5 µM
% hemolysis at 100 μM [1]: 0%
Minimal Inhibitory Concentration B. megaterium (Bm11) (Bacillus megaterium Bm11): 2 µM

CC[C@H](C)[C@@H]1NC(=O)[C@H](CCCCN)NC(=O)[C@H]2CCCN2C(=O)[C@H]([C@@H](C)CC)NC(=O)[C@H](CC(C)C)NC(=O)[C@H](C)NC(=O)[C@H](Cc2ccccc2)NC(=O)[C@H](Cc2ccccc2)NC(=O)CNC(=O)[C@H](CCCCN)NC(=O)[C@H](CCCCN)NC(=O)[C@@H](N)CSSC[C@@H](C(=O)O)NC(=O)[C@H](C(C)C)NC(=O)[C@H](C)NC(=O)[C@H](CO)NC(=O)[C@@H](CC(C)C)NC(=O)[C@@H](CC(C)C)NC(=O)[C@H]([C@@H](C)O)NC(=O)[C@H](CCCCN)NC(=O)[C@H](Cc2ccccc2)NC(=O)[C@H](CC(C)C)NC(=O)[C@@H]2CCCN2C(=O)[C@H](CO)NC(=O)[C@H](CO)NC(=O)[C@H]([C@@H](C)CC)NC1=O [Peptide 87, Cyclic K^1K^2[D]P^7L^18L^19[1-22]-par]
Minimal Inhibitory Concentration E. coli (D21) (Escherichia coli D21): 15 µM
% hemolysis at 100 μM [1]: 0%
Minimal Inhibitory Concentration B. megaterium (Bm11) (Bacillus megaterium Bm11): 6 µM

CC(C)C[C@H](NC(=O)[C@@H](CC(C)C)NC(=O)[C@H](CCCCN)NC(=O)[C@@H](CC(C)C)NC(=O)[C@H](CC(C)C)NC(=O)[C@@H](CC(C)C)NC(=O)[C@@H](N)CCCCN)C(=O)N[C@@H](CCCCN)C(=O)O [Peptide 29, [D]-L^2,4,6-K3L5] (H-K[dL]L[dL]K[dL]LK-OH)
Minimal Inhibitory Concentration E. coli (D21) (Escherichia coli D21): 3 µM
% hemolysis at 100 μM [1]: 0%
Minimal Inhibitory Concentration B. megaterium (Bm11) (Bacillus megaterium Bm11): 3 µM

CC(C)[C@H](NC(=O)[C@H](CCCCN)NC(=O)[C@H](NC(=O)[C@H](NC(=O)[C@@H](NC(=O)[C@@H](N)CCCCN)C(C)C)C(C)C)C(C)C)C(=O)N[C@H](C(=O)N[C@@H](C(=O)N[C@@H](CCCCN)C(=O)N[C@@H](C(=O)N[C@H](C(=O)N[C@@H](CCCCN)C(N)=O)C(C)C)C(C)C)C(C)C)C(C)C [Peptide 34, [D]-V^3,4,8,10-K4V8] (H-KV[dV][dV]KVV[dV]K[dV]VK-NH2)
Minimal Inhibitory Concentration E. coli (D21) (Escherichia coli D21): 3.5 µM
% hemolysis at 100 μM [1]: 0%
Minimal Inhibitory Concentration B. megaterium (Bm11) (Bacillus megaterium Bm11): 0.8 µM

CC[C@H](C)[C@H](NC(=O)[C@H](CCCCN)NC(=O)[C@@H]1CCCN1C(=O)[C@@H](NC(=O)[C@H](CC(C)C)NC(=O)[C@H](C)NC(=O)[C@H](Cc1ccccc1)NC(=O)[C@H](Cc1ccccc1)NC(=O)CN)[C@@H](C)CC)C(=O)N[C@H](C(=O)N[C@@H](CO)C(=O)N[C@@H](CO)C(=O)N1CCC[C@@H]1C(=O)N[C@@H](CC(C)C)C(=O)N[C@@H](Cc1ccccc1)C(=O)N[C@@H](CCCCN)C(=O)N[C@H](C(=O)N[C@@H](CC(C)C)C(=O)N[C@@H](CC(C)C)C(=O)N[C@@H](CO)C(=O)N[C@@H](C)C(=O)N[C@H](C(=O)NCC(=O)N[C@@H](CO)C(=O)N[C@@H](C)C(=O)N[C@@H](CC(C)C)C(=O)N[C@@H](CO)C(=O)N[C@@H](CO)C(=O)N[C@@H](CO)C(=O)NCC(=O)NCC(=O)N[C@@H](CCC(N)=O)C(=O)N[C@@H](CCC(=O)NCCN)C(=O)NCCN)C(C)C)[C@@H](C)O)[C@@H](C)CC [Peptide 9, [D]P^13-TApar]
Minimal Inhibitory Concentration E. coli (D21) (Escherichia coli D21): 3 µM
% hemolysis at 50 μM peptide [1]: 83%
Minimal Inhibitory Concentration B. megaterium (Bm11) (Bacillus megaterium Bm11): 1.5 µM

CC[C@H](C)[C@H](NC(=O)[C@H](CCCCN)NC(=O)[C@H]1CCCN1C(=O)[C@@H](NC(=O)[C@H](CC(C)C)NC(=O)[C@H](C)NC(=O)[C@H](Cc1ccccc1)NC(=O)[C@H](Cc1ccccc1)NC(=O)CN)[C@@H](C)CC)C(=O)N[C@H](C(=O)N[C@@H](CO)C(=O)N[C@@H](CO)C(=O)N1CCC[C@H]1C(=O)N[C@@H](CC(C)C)C(=O)N[C@@H](Cc1ccccc1)C(=O)N[C@@H](CCCCN)C(=O)N[C@H](C(=O)N[C@@H](CC(C)C)C(=O)N[C@H](CC(C)C)C(=O)N[C@@H](CO)C(=O)N[C@@H](C)C(=O)N[C@H](C(=O)NCC(=O)N[C@@H](CO)C(=O)N[C@@H](C)C(=O)N[C@@H](CC(C)C)C(=O)N[C@@H](CO)C(=O)N[C@@H](CO)C(=O)N[C@@H](CO)C(=O)NCC(=O)NCC(=O)N[C@@H](CCC(N)=O)C(=O)N[C@@H](CCC(=O)NCCN)C(=O)NCCN)C(C)C)[C@@H](C)O)[C@@H](C)CC [Peptide 11, [D]P^7L^19-TApar]
Minimal Inhibitory Concentration E. coli (D21) (Escherichia coli D21): 3 µM
% hemolysis at 50 μM peptide [1]: 82%
Minimal Inhibitory Concentration B. megaterium (Bm11) (Bacillus megaterium Bm11): 1.5 µM

CC(C)C[C@H](NC(=O)[C@@H](CC(C)C)NC(=O)[C@H](CC(C)C)NC(=O)[C@@H](CC(C)C)NC(=O)[C@@H](N)CCCCN)C(=O)N[C@@H](CCCCN)C(=O)O [Peptide 28, [D]-L^2,4-K2L4] (H-K[dL]L[dL]LK-OH)
Minimal Inhibitory Concentration E. coli (D21) (Escherichia coli D21): 200 µM
% hemolysis at 100 μM [1]: 0%
Minimal Inhibitory Concentration B. megaterium (Bm11) (Bacillus megaterium Bm11): 50 µM

C[C@H](NC(=O)[C@H](C)NC(=O)[C@H](CCCCN)NC(=O)[C@@H](C)NC(=O)[C@@H](C)NC(=O)[C@H](C)NC(=O)[C@@H](N)CCCCN)C(=O)N[C@H](C)C(=O)N[C@@H](CCCCN)C(=O)N[C@H](C)C(=O)N[C@@H](C)C(=O)N[C@@H](CCCCN)C(N)=O [Peptide 33, [D]-A^3,4,8,10-K4A8] (H-KA[dA][dA]KAA[dA]K[dA]AK-NH2)
Minimal Inhibitory Concentration E. coli (D21) (Escherichia coli D21): 12 µM
% hemolysis at 100 μM [1]: 0%
Minimal Inhibitory Concentration B. megaterium (Bm11) (Bacillus megaterium Bm11): 1 µM

CC(C)C[C@H](NC(=O)[C@H](CC(C)C)NC(=O)[C@@H](CC(C)C)NC(=O)[C@H](N)CCCCN)C(=O)N[C@H](CCCCN)C(=O)N[C@H](CC(C)C)C(=O)N[C@H](CC(C)C)C(=O)N[C@@H](CC(C)C)C(=O)N[C@H](CCCCN)C(=O)N[C@@H](CC(C)C)C(=O)N[C@H](CC(C)C)C(=O)N[C@H](CCCCN)C(N)=O [Peptide 26, [D]-K^1,5,9,12L^2,6,7,11-K4L8] (H-[dK][dL]LL[dK][dL][dL]L[dK]L[dL][dK]-NH2)
Minimal Inhibitory Concentration E. coli (D21) (Escherichia coli D21): 4 µM
% hemolysis at 100 μM [1]: 0%
Minimal Inhibitory Concentration B. megaterium (Bm11) (Bacillus megaterium Bm11): 0.5 µM

CC[C@H](C)[C@H](NC(=O)[C@H](CCCCN)NC(=O)[C@H]1CCCN1C(=O)[C@@H](NC(=O)[C@H](CC(C)C)NC(=O)[C@H](C)NC(=O)[C@H](Cc1ccccc1)NC(=O)[C@H](Cc1ccccc1)NC(=O)CN)[C@@H](C)CC)C(=O)N[C@H](C(=O)N[C@@H](CO)C(=O)N[C@@H](CO)C(=O)N1CCC[C@H]1C(=O)N[C@@H](CC(C)C)C(=O)N[C@@H](Cc1ccccc1)C(=O)N[C@@H](CCCCN)C(=O)N[C@H](C(=O)N[C@@H](CC(C)C)C(=O)N[C@@H](CC(C)C)C(=O)N[C@@H](CO)C(=O)N[C@@H](C)C(=O)N[C@H](C(=O)NCCN)C(C)C)[C@@H](C)O)[C@@H](C)CC [Peptide 17, [D]P^7[1-22]-TApar]
Minimal Inhibitory Concentration E. coli (D21) (Escherichia coli D21): 10 µM
% hemolysis at 50 μM peptide [1]: 17%
Minimal Inhibitory Concentration B. megaterium (Bm11) (Bacillus megaterium Bm11): 1 µM
